From PubChem BioAssay AID256 (DTP/NCI, 2004)
“And” between values parts separate entries of the source, which are not always exact repeats. Equal entries are not always repeated. Inconclusive results and toxic doses are left out.

Tested on: CD2F1 mice, L1210 leukemia ip, survival T/C
Experiment: NCI In Vivo Anticancer Drug Screen. Data for tumor model L1210 Leukemia (intraperitoneal) in CD2F1 (CDF1) mice
Conditions: higher = longer survival
Method in brief: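 In this screen, transplantable tumors were grown in mice given either the compound or its vehicle. Results were expressed as the treated measurement relative to the control measurement.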

[1] = endpoint: mean survival time, dose: 100.0 mg/kg/injection, schedule: Q04DX003 (ip), vehicle: saline with Tween-80
[2] = endpoint: mean survival time, dose: 200.0 mg/kg/injection, schedule: Q04DX003 (ip), vehicle: saline with Tween-80
[3] = endpoint: mean survival time, dose: 400.0 mg/kg/injection, schedule: Q04DX003 (ip), vehicle: saline with Tween-80
[4] = endpoint: mean survival time, dose: 12.5 mg/kg/injection, schedule: Q01DX009 (ip), vehicle: saline
[5] = endpoint: mean survival time, dose: 25.0 mg/kg/injection, schedule: Q01DX009 (ip), vehicle: saline
[6] = endpoint: mean survival time, dose: 100.0 mg/kg/injection, schedule: Q04DX002 (ip), vehicle: saline
[7] = endpoint: mean survival time, dose: 100.0 mg/kg/injection, schedule: Q01DX001 (ip), vehicle: saline with Tween-80
[8] = endpoint: mean survival time, dose: 200.0 mg/kg/injection, schedule: Q01DX001 (ip), vehicle: saline with Tween-80
[9] = endpoint: mean survival time, dose: 400.0 mg/kg/injection, schedule: Q01DX001 (ip), vehicle: saline with Tween-80
[10] = endpoint: mean survival time, dose: 100.0 mg/kg/injection, schedule: Q04DX003 (ip), vehicle: saline
[11] = endpoint: mean survival time, dose: 200.0 mg/kg/injection, schedule: Q04DX003 (ip), vehicle: saline
[12] = endpoint: mean survival time, dose: 400.0 mg/kg/injection, schedule: Q04DX003 (ip), vehicle: saline
[13] = endpoint: mean survival time, dose: 50.0 mg/kg/injection, schedule: Q01DX009 (ip), vehicle: saline with Tween-80
[14] = endpoint: mean survival time, dose: 100.0 mg/kg/injection, schedule: Q01DX009 (ip), vehicle: saline with Tween-80
[15] = endpoint: mean survival time, dose: 200.0 mg/kg/injection, schedule: Q01DX009 (ip), vehicle: saline with Tween-80
[16] = endpoint: mean survival time, dose: 200.0 mg/kg/injection, schedule: Q04DX002 (ip), vehicle: saline
[17] = endpoint: mean survival time, dose: 400.0 mg/kg/injection, schedule: Q04DX002 (ip), vehicle: saline
[18] = endpoint: mean survival time, dose: 400.0 mg/kg/injection, schedule: Q01DX009 (ip), vehicle: saline with Tween-80

`COc1ccc(/C=C2/CCOC2=O)cc1` was tested, and the T/C (endpoint: mean survival time, dose: 3.12 mg/kg/injection, schedule: Q01DX001 (ip), vehicle: Klucel (hydroxypropylcellulose) (HPC)) was 104 % of control, the T/C (endpoint: mean survival time, dose: 3.12 mg/kg/injection, schedule: Q04DX002 (ip), vehicle: Klucel (hydroxypropylcellulose) (HPC)) was 103 % of control and the T/C (endpoint: mean survival time, dose: 6.25 mg/kg/injection, schedule: Q01DX001 (ip), vehicle: Klucel (hydroxypropylcellulose) (HPC)) was 102 % of control. The T/C (endpoint: mean survival time, dose: 6.25 mg/kg/injection, schedule: Q04DX002 (ip), vehicle: Klucel (hydroxypropylcellulose) (HPC)) was 100 % of control, the T/C (endpoint: mean survival time, dose: 12.5 mg/kg/injection, schedule: Q01DX001 (ip), vehicle: Klucel (hydroxypropylcellulose) (HPC)) was 116 % of control and the T/C (endpoint: mean survival time, dose: 12.5 mg/kg/injection, schedule: Q04DX002 (ip), vehicle: Klucel (hydroxypropylcellulose) (HPC)) was 107 % of control.

With `CC[NH-].[Cl][Pt+2][Cl].[NH-]C1CC1` the T/C (endpoint: mean survival time, dose: 3.13 mg/kg/injection, schedule: Q04DX003 (ip), vehicle: distilled water + Tween-80) was 116 % of control.

With `CC(C(=O)O)C1CCC2C3CC=C4CC(O)CCC4(C)C3CCC12C` (stereo not drawn) the T/C [1] was 99 % of control, the T/C [2] was 100 % of control and the T/C [3] was 100 % of control.

For `CC(Oc1ccc(Cl)cc1)C(/C=N/N=C(N)N)=N/N=C(N)N` (stereo not drawn), the T/C (endpoint: mean survival time, dose: 1.56 mg/kg/injection, schedule: Q01DX009 (ip), vehicle: saline) was 100 % of control, the T/C (endpoint: mean survival time, dose: 3.13 mg/kg/injection, schedule: Q01DX009 (ip), vehicle: saline) was 98 % of control and the T/C (endpoint: mean survival time, dose: 6.25 mg/kg/injection, schedule: Q01DX009 (ip), vehicle: saline) was 102 % of control. The T/C [4] was 100 % of control and the T/C [5] was 96 % of control and 101 % of control.

For `CN=C(N)CS`, the T/C (endpoint: mean survival time, dose: 25.0 mg/kg/injection, schedule: Q04DX002 (ip), vehicle: saline) was 101 % of control, the T/C (endpoint: mean survival time, dose: 50.0 mg/kg/injection, schedule: Q04DX002 (ip), vehicle: saline) was 101 % of control and the T/C [6] was 101 % of control.

For `O=C1CC2OCCC3=CN4CCC56c7ccccc7N1C5C2C3CC46` (stereo not drawn), the T/C (endpoint: mean survival time, dose: 1.25 mg/kg/injection, schedule: Q01DX001 (ip), vehicle: other) was 116 % of control and the T/C (endpoint: mean survival time, dose: 2.5 mg/kg/injection, schedule: Q01DX001 (ip), vehicle: other) was 108 % of control.

With `Cc1cc(Br)ccc1N` the T/C [1] was 97 % of control, the T/C [2] was 96 % of control and the T/C [3] was 97 % of control.

With `CC(CCC(=O)O)C1CCC2C3CCC4CC(O)CCC4(C)C3CC(O)C12C` (stereo not drawn) the T/C [7] was 104 % of control and 94 % of control, the T/C [8] was 101 % of control and the T/C [9] was 92 % of control.

In the case of `O=c1ccccn1CC(O)S(=O)(=O)O` (stereo not drawn), the T/C [10] is reported as 95 % of control, the T/C [11] is reported as 92 % of control and the T/C [12] is reported as 100 % of control.

With `NNC(=O)CCc1ccccc1Br` the T/C [13] was 92 % of control and 102 % of control, the T/C [14] was 102 % of control and 103 % of control and the T/C [1] was 100 % of control. The T/C [15] was 93 % of control and the T/C [2] was 97 % of control.

`NC(C(=O)O)C(CC(=O)O)C(=O)O` (stereo not drawn) was tested, and the T/C [6] was 111 % of control, the T/C [16] was 106 % of control and the T/C [17] was 106 % of control.

In the case of `CC(=O)Nc1ccc(C(C)=O)cc1[N+](=O)[O-]`, the T/C [14] is reported as 91 % of control, the T/C [1] is reported as 101 % of control and the T/C [15] is reported as 95 % of control. For the same molecule, the T/C [2] was 100 % of control, the T/C [18] was 95 % of control and the T/C [3] was 100 % of control.

`CCOC(=O)C(OCc1ccccc1)(C(=O)N1CCCCCC1=O)C(C)C` (stereo not drawn) was tested, and the T/C [1] was 100 % of control, the T/C [2] was 105 % of control and the T/C [3] was 96 % of control.

With `O=C(CCCCCCCCC(=O)OO)OO` (tested in a mixture with another compound) the T/C [14] was 96 % of control.

`O=C(OC(=O)C(F)(F)C(F)(F)F)C(F)(F)C(F)(F)F` was tested, and the T/C [6] was 92 % of control, the T/C [16] was 103 % of control and the T/C [17] was 100 % of control.

For `c1ccc2c3c(c4c(c2c1)CN(C1CCCCC1)CO4)OCN(C1CCCCC1)C3`, the T/C (endpoint: median survival time, dose: 0.19 mg/kg/injection, schedule: Q01DX009 (ip), vehicle: other) was 101 % of control, the T/C (endpoint: median survival time, dose: 0.38 mg/kg/injection, schedule: Q01DX009 (ip), vehicle: other) was 101 % of control and the T/C (endpoint: median survival time, dose: 0.75 mg/kg/injection, schedule: Q01DX009 (ip), vehicle: other) was 98 % of control. The T/C (endpoint: median survival time, dose: 1.5 mg/kg/injection, schedule: Q01DX009 (ip), vehicle: other) was 98 % of control.

`COCC(=O)C(C(C)=O)C(c1ccncc1)C(C(C)=O)C(=O)COC` (stereo not drawn) was tested, and the T/C [1] was 96 % of control, the T/C [2] was 98 % of control and the T/C [3] was 102 % of control.

With `O=C(Nc1ccc(S(=O)(=O)N2CCCCC2)cc1)OC(c1ccccc1)c1ccccc1` the T/C (endpoint: mean survival time, dose: 5.0 mg/kg/injection, schedule: Q01DX001 (ip), vehicle: other) was 103 % of control, the T/C (endpoint: mean survival time, dose: 10.0 mg/kg/injection, schedule: Q01DX001 (ip), vehicle: other) was 100 % of control and the T/C (endpoint: mean survival time, dose: 20.0 mg/kg/injection, schedule: Q01DX001 (ip), vehicle: other) was 93 % of control. The T/C (endpoint: mean survival time, dose: 40.0 mg/kg/injection, schedule: Q01DX001 (ip), vehicle: other) was 100 % of control and the T/C (endpoint: mean survival time, dose: 80.0 mg/kg/injection, schedule: Q01DX001 (ip), vehicle: other) was 102 % of control.

With `COc1cc(OC)c(NC(=O)Nc2cccc(SC)c2)cc1Cl` the T/C [13] was 92 % of control and the T/C [14] was 88 % of control.

With `O=C1C2C(C(=O)N1c1ccc(F)c([N+](=O)[O-])c1)C1(Cl)C(Cl)=C(Cl)C2(Cl)C1(Cl)Cl` (stereo not drawn) the T/C [13] was 108 % of control, the T/C [14] was 116 % of control and the T/C [15] was 111 % of control.

For `CCN(CC)C(=O)c1ccncc1`, the T/C [10] was 101 % of control, the T/C [11] was 104 % of control and the T/C [12] was 101 % of control.

`N=[N+]=CC(=O)OCC(N)C(=O)O` (stereo not drawn) was tested, and the T/C (endpoint: mean survival time, dose: 1.0 mg/kg/injection, schedule: Q03HX016 (ip), vehicle: saline) was 168 % of control, the T/C (endpoint: mean survival time, dose: 2.0 mg/kg/injection, schedule: Q03HX016 (ip), vehicle: saline) was 168 % of control and the T/C (endpoint: mean survival time, dose: 2.0 mg/kg/injection, schedule: Q03HX024 (ip), vehicle: saline) was 153 % of control and 163 % of control. For the same molecule, the T/C (endpoint: mean survival time, dose: 4.0 mg/kg/injection, schedule: Q03HX016 (ip), vehicle: saline) was 182 % of control, the T/C (endpoint: mean survival time, dose: 4.0 mg/kg/injection, schedule: Q03HX024 (ip), vehicle: saline) was 171 % of control and 174 % of control and the T/C (endpoint: mean survival time, dose: 8.0 mg/kg/injection, schedule: Q03HX016 (ip), vehicle: saline) was 115 % of control. The T/C (endpoint: mean survival time, dose: 8.0 mg/kg/injection, schedule: Q03HX024 (ip), vehicle: saline) was 113 % of control and 115 % of control, the T/C [4] was 167 % of control and the T/C (endpoint: mean survival time, dose: 25.0 mg/kg/injection, schedule: Q01DX007 (ip), vehicle: saline) was 122 % of control. The T/C [5] was 100 % of control, the T/C (endpoint: mean survival time, dose: 50.0 mg/kg/injection, schedule: Q01DX007 (ip), vehicle: saline) was 96 % of control and the T/C (endpoint: mean survival time, dose: 50.0 mg/kg/injection, schedule: Q03DX003 (ip), vehicle: saline) was 151 % of control.

`CC(=O)OC1C(CNC(=O)Oc2ccccc2)OC(n2cnc3c(=O)[nH]c(N)nc32)C1OC(C)=O` (stereo not drawn) was tested, and the T/C (endpoint: mean survival time, dose: 100.0 mg/kg/injection, schedule: Q01DX001 (ip), vehicle: Klucel (hydroxypropylcellulose) (HPC)) was 88 % of control, the T/C (endpoint: mean survival time, dose: 200.0 mg/kg/injection, schedule: Q01DX001 (ip), vehicle: Klucel (hydroxypropylcellulose) (HPC)) was 94 % of control and the T/C (endpoint: mean survival time, dose: 400.0 mg/kg/injection, schedule: Q01DX001 (ip), vehicle: Klucel (hydroxypropylcellulose) (HPC)) was 91 % of control.

With `CCOP(=O)(OCC)C1=C(P(=O)(OCC)OCC)C(F)(F)C1(F)F` the T/C (endpoint: mean survival time, dose: 9.5 mg/kg/injection, schedule: Q01DX001 (ip), vehicle: other) was 97 % of control, the T/C (endpoint: mean survival time, dose: 19.0 mg/kg/injection, schedule: Q01DX001 (ip), vehicle: other) was 97 % of control and the T/C (endpoint: mean survival time, dose: 38.0 mg/kg/injection, schedule: Q01DX001 (ip), vehicle: other) was 91 % of control.

For `COC(=O)c1ccc(I)c([N+](=O)[O-])c1`, the T/C [7] was 98 % of control, the T/C [14] was 102 % of control and the T/C [8] was 104 % of control. The T/C [15] was 102 % of control, the T/C [9] was 97 % of control and the T/C [18] was 103 % of control.

With `COC1OC(OC2OC=C3C(=O)OC4CC(C)C2C34)C(O)C(O)C1O` (stereo not drawn) the T/C (endpoint: median survival time, dose: 4.0 mg/kg/injection, schedule: Q01DX005 (ip), vehicle: Klucel (hydroxypropylcellulose) (HPC)) was 104 % of control, the T/C (endpoint: median survival time, dose: 8.0 mg/kg/injection, schedule: Q01DX005 (ip), vehicle: Klucel (hydroxypropylcellulose) (HPC)) was 101 % of control and the T/C (endpoint: median survival time, dose: 16.0 mg/kg/injection, schedule: Q01DX005 (ip), vehicle: Klucel (hydroxypropylcellulose) (HPC)) was 104 % of control. The T/C (endpoint: median survival time, dose: 32.0 mg/kg/injection, schedule: Q01DX005 (ip), vehicle: Klucel (hydroxypropylcellulose) (HPC)) was 109 % of control.
